System: mutant Huntington (HTT) protein
Assay: HTT Mutant HTRF iPSC assay (mHTT protein lowering)
Type: cell-based
Settings: human iPSC derived from a HTT patient with a poly-Q49 mutation

| SMILES | IC50 |
| --- | --- |
| Cc1cn2nc(-c3cc(F)c4nc([C@H]5CCNC6(CC6)C5)cn4c3)cc(C)c2n1 (single isomer, unassigned) [Compound 180] | < 0.1 µM |
| Cc1cn2nc(-c3cc(F)c4nc(C5CCN(C)C5)cn4c3)cc(C)c2n1 (single isomer, unassigned) [Compound 186] | 0.1 to 1 µM |
| Cc1cn2nc(-c3cc(F)c4nc([C@@H]5CCNC5)cn4c3)cc(C)c2n1 (single isomer, unassigned) [Compound 189] | < 0.1 µM |
| Cc1cn2nc(-c3cc(F)c4nc([C@H]5CCNC5)cn4c3)cc(C)c2n1 (single isomer, unassigned) [Compound 190] | 0.1 to 1 µM |
| Cc1cn2nc(-c3cc(F)c4nc(C5CCN(C)C6(CC6)C5)cn4c3)cc(C)c2n1 (single isomer, unassigned) [Compound 209] | < 0.1 µM |
| Cc1cn2nc(-c3cc(F)c4nc(C5CCNC(C)(C)C5)cn4c3)cc(C)c2n1 (single isomer, unassigned) [Compound 234] | < 0.1 µM |
| Cc1cn2nc(-c3cc(F)c4nc(C5CCNC(C)(C)C5)cn4c3)cc(C)c2n1 (single isomer, unassigned) [Compound 235] | < 0.1 µM |
| Cc1cn2nc(-c3cc(F)c4nc(NC(=O)C5CCCN(C)C5)cn4c3)cc(C)c2n1 (single isomer, unassigned) [Compound 277] | < 0.1 µM |
| Cc1cn2nc(-c3cc(F)c4nc(NC(=O)C5CCCN(C)C5)cn4c3)cc(C)c2n1 (single isomer, unassigned) [Compound 278] | < 0.1 µM |
| Cc1cn2nc(-c3cc(F)c4nc(NC(=O)C5CCCNC5)nn4c3)cc(C)c2n1 (single isomer, unassigned) [Compound 315] | 0.1 to 1 µM |
| Cc1cn2nc(-c3cc(F)c4nc(NC(=O)C5CCCNC5)nn4c3)cc(C)c2n1 (single isomer, unassigned) [Compound 316] | 0.1 to 1 µM |
| Cc1cn2nc(-c3cc(F)c4nc(NC(=O)C5CCCN(C)C5)nn4c3)cc(C)c2n1 (single isomer, unassigned) [Compound 325] | 0.1 to 1 µM |
| Cc1cn2nc(-c3cc(F)c4nc(NC(=O)C5CCCN(C)C5)nn4c3)cc(C)c2n1 (single isomer, unassigned) [Compound 326] | 0.1 to 1 µM |
| Cc1cn2nc(-c3cc(F)c4nc(C(=O)NC5CCNC6(CC6)C5)cn4c3)cc(C)c2n1 (single isomer, unassigned) [Compound 348] | 0.1 to 1 µM |
| Cc1cn2nc(-c3cc(F)c4nc(N(C)C5CCNC(C)(C)C5)oc4c3)cc(C)c2n1 (single isomer, unassigned) [Compound 508] | 0.1 to 1 µM |
| Cc1cn2nc(-c3cc(F)c4nc(N(C)C5CCNC(C)(C)C5)oc4c3)cc(C)c2n1 (single isomer, unassigned) [Compound 509] | 0.1 to 1 µM |
| CN[C@@H]1CCC[C@H](c2cn3cc(-c4cc(F)c5nn(C)cc5c4)cc(F)c3n2)C1 (stereo in doubt) [Compound 162, rel-(1R,3S)-3-(8-fluoro-6-(7-fluoro-2-methyl-2H-indazol-5-yl)imidazo[1,2-a]pyridin-2-yl)-N-methylcyclohexan-1-amine] | 0.1 to 1 µM |

| SMILES | IC50 |
| --- | --- |
| CN[C@H]1CCC[C@@H](c2cn3cc(-c4cc(F)c5nn(C)cc5c4)cc(F)c3n2)C1 (stereo in doubt) [Compound 163, rel-(1R,3S)-3-(8-fluoro-6-(7-fluoro-2-methyl-2H-indazol-5-yl)imidazo[1,2-a]pyridin-2-yl)-N-methylcyclohexan-1-amine] | 0.1 to 1 µM |
| Cc1cn2nc(-c3cc(F)c4nc(NC(=O)[C@H]5CN[C@@H]5C)cn4c3)cc(C)c2n1 (stereo in doubt) [Compound 286, rel-(2R,3S)-N-(6-(2,8-dimethylimidazo[1,2-b]pyridazin-6-yl)-8-fluoroimidazo[1,2-a]pyridin-2-yl)-2-methylazetidine-3-carboxamide] | < 0.1 µM |
| Cc1cn2nc(-c3cc(F)c4nc(NC(=O)[C@@H]5CN[C@H]5C)cn4c3)cc(C)c2n1 (stereo in doubt) [Compound 287, rel-(2R,3S)-N-(6-(2,8-dimethylimidazo[1,2-b]pyridazin-6-yl)-8-fluoroimidazo[1,2-a]pyridin-2-yl)-2-methylazetidine-3-carboxamide] | < 0.1 µM |
| CCN1CC[C@H](N(C)c2nc3c(F)cc(-c4cc(C)c5nc(C)cn5n4)cc3o2)C[C@@H]1C (stereo in doubt) [Compound 486, rel-6-(2,8-dimethylimidazo[1,2-b]pyridazin-6-yl)-N-((2R,4R)-1-ethyl-2-methylpiperidin-4-yl)-4-fluoro-N-methylbenzo[d]oxazol-2-amine] | < 0.1 µM |
| CCN1CC[C@@H](N(C)c2nc3c(F)cc(-c4cc(C)c5nc(C)cn5n4)cc3o2)C[C@H]1C (stereo in doubt) [Compound 487, rel-6-(2,8-dimethylimidazo[1,2-b]pyridazin-6-yl)-N-((2R,4R)-1-ethyl-2-methylpiperidin-4-yl)-4-fluoro-N-methylbenzo[d]oxazol-2-amine] | < 0.1 µM |
| Cc1cn2nc(-c3cc(F)c4nc(C5CCNCC5)cn4c3)cc(C)c2n1 [Compound 1] | < 0.1 µM |
| Cc1cn2nc(-c3cc(F)c4nc(C5CCNCC5)cn4c3)ccc2n1 [Compound 2, 6-(8-fluoro-2-(piperidin-4-yl)imidazo[1,2-a]pyridin-6-yl)-2-methylimidazo[1,2-b]pyridazine] | < 0.1 µM |
| CCN1CCC(c2cn3cc(-c4ccc5nc(C)cn5n4)cc(F)c3n2)CC1 [Compound 3, 6-(2-(1-ethylpiperidin-4-yl)-8-fluoroimidazo[1,2-a]pyridin-6-yl)-2-methylimidazo[1,2-b]pyridazine] | < 0.1 µM |
| Cc1cn2nc(-c3cc(F)c4nc(C5CCN(C)CC5)cn4c3)ccc2n1 [Compound 4, 6-[8-fluoro-2-(1-methyl-4-piperidyl)imidazo[1,2-a]pyridin-6-yl]-2-methyl-imidazo[1,2-b]pyridazine] | 0.1 to 1 µM |
| CCN1CCC(c2cn3cc(-c4cc(F)c5nn(C)cc5c4)cc(F)c3n2)CC1 [Compound 5, 5-(2-(1-ethylpiperidin-4-yl)-8-fluoroimidazo[1,2-a]pyridin-6-yl)-7-fluoro-2-methyl-2H-indazole] | 0.1 to 1 µM |
| Cc1cc(-c2cc(F)c3nc(C4CCN(C)CC4)cn3c2)cc2cn(C)nc12 [Compound 6, 5-(8-fluoro-2-(1-methylpiperidin-4-yl)imidazo[1,2-a]pyridin-6-yl)-2,7-dimethyl-2H-indazole] | 0.1 to 1 µM |
| CCN1CCC(c2cn3cc(-c4ccc5nn(C)cc5c4)cc(F)c3n2)CC1 [Compound 7, 5-(2-(1-ethylpiperidin-4-yl)-8-fluoroimidazo[1,2-a]pyridin-6-yl)-2-methyl-2H-indazole] | 1 to 9 µM |
| CCN1CCC(c2cn3cc(-c4ccc5nc(C)cn5c4)cc(F)c3n2)CC1 [Compound 8, 2-(1-ethylpiperidin-4-yl)-8-fluoro-2′-methyl-6,6′-biimidazo[1,2-a]pyridine] | 1 to 9 µM |
| Cc1cn2cc(-c3cc(F)c4nc(C5CCN(C)CC5)cn4c3)cc(C)c2n1 [Compound 9, 8-fluoro-2′,8′-dimethyl-2-(1-methylpiperidin-4-yl)-6,6′-biimidazo[1,2-a]pyridine] | 1 to 9 µM |
| Cc1cn2cc(-c3cc(F)c4nc(C5CCN(C)CC5)cn4c3)ccc2n1 [Compound 10, 8-fluoro-2′-methyl-2-(1-methylpiperidin-4-yl)-6,6′-biimidazo[1,2-a]pyridine] | 1 to 9 µM |
| Cn1cc2cc(-c3cc(F)c4nc(C5CCNCC5)cn4c3)ccc2n1 [Compound 11, 5-(8-fluoro-2-(piperidin-4-yl)imidazo[1,2-a]pyridin-6-yl)-2-methyl-2H-indazole] | 0.1 to 1 µM |

From patent US20250353841A1 (BIOGEN MA INC., priority 2022, published 2025)
